Laboratory results as given in publication PMC11459172 (Proceedings of the National Academy of Sciences of the …, 2024).

What was measured:
PARP1 = PARP1 (Homo sapiens, UniProt P09874); experiment: In vitro PARP1 autoPARylation reaction with recombinant HTT-HAP40, western blot; assay type: biochemical; conditions: 10 fmol recombinant PARP1, 2 h at 30 °C, increasing amounts of HTT-HAP40
[1] = Fluorescence polarization with FAM-labeled 11-mer or 26-mer PAR; assay type: binding; conditions: 25 nM FAM-labeled PAR, up to 10 μM protein
PARG = PARG (Homo sapiens, UniProt Q86W56); assay type: cell-based; conditions: TruHD fibroblasts, HD vs control
Chain of PARG (Q86W56 whole entry): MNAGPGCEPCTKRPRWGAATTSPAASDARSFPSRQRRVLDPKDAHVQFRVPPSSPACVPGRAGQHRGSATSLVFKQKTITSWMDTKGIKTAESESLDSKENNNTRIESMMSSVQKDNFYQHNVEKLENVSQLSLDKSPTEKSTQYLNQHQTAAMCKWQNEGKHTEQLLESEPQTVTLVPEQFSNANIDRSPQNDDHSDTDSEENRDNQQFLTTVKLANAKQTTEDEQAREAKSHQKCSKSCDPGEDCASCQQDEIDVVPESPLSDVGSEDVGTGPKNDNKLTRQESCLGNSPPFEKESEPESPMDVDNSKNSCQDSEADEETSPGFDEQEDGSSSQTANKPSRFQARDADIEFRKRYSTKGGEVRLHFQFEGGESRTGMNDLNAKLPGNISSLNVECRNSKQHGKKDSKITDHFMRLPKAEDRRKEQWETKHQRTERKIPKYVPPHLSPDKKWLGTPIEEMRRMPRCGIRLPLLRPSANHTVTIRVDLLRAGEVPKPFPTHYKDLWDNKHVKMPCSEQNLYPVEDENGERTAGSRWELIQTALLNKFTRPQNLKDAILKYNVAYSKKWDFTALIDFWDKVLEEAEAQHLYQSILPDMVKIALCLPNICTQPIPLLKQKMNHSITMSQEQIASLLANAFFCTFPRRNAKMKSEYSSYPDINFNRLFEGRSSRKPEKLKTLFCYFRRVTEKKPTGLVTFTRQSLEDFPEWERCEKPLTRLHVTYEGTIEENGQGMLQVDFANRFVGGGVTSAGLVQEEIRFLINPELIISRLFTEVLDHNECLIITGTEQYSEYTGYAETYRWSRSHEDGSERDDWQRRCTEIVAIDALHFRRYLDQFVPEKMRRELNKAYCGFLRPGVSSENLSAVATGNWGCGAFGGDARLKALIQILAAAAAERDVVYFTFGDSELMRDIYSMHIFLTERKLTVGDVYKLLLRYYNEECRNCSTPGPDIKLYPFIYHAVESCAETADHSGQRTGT

PARP1/2 = assay type: cell-based, human; conditions: TruHD fibroblasts, HD vs control; as Fig 3B; SI Fig S6C

Chain of PARP1 (P09874 whole entry): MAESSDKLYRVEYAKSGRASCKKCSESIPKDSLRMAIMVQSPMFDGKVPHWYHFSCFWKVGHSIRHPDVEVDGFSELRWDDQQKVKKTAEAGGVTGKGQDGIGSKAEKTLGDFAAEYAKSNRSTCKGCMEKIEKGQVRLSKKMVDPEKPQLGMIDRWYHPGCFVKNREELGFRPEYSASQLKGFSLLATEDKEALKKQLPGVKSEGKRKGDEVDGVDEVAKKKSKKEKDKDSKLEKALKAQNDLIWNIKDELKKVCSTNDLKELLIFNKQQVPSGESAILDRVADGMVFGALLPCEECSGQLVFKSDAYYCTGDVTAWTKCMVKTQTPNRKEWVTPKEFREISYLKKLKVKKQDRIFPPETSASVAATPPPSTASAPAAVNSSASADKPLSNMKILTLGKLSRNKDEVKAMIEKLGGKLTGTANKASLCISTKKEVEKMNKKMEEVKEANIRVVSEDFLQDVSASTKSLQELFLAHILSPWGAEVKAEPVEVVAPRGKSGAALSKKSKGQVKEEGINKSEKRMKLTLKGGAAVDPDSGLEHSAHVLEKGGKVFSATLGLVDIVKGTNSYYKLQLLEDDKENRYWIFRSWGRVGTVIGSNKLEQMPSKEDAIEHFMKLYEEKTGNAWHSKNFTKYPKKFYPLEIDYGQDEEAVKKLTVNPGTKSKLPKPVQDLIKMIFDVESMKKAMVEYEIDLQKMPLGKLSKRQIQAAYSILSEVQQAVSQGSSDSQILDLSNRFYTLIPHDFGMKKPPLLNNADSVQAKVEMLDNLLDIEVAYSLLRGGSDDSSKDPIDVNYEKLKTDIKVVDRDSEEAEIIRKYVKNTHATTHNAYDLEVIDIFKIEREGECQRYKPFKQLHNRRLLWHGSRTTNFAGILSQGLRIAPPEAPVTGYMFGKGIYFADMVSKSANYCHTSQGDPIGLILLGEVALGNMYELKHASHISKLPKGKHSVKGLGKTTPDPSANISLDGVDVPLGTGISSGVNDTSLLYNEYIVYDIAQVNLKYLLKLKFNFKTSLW

## wild-type HTT: purified recombinant wild-type huntingtin in complex with HAP40, Q23
PARP1
  Effect on PARP1 autoPARylation activity: stimulated PARP1 activity in a dose-dependent manner
[1]; listed as HTT
  PAR binding by fluorescence polarization: binds long (26-mer) PAR chains, in preference to shorter (11-mer) substrates
[1]; listed as HTT-HAP40 Q23
  PAR binding by fluorescence polarization: lower binding than the positive control PAR-binding protein HUWE1, but higher binding than the negative control non-PAR-binding protein USP5

## PDD00017273
PARG
  PARG inhibitor IC50, HD compared to control cells: no difference between HD and control cells

## Cn1ncnc1[C@H]1c2n[nH]c(=O)c3cc(F)cc(c23)N[C@@H]1c1ccc(F)cc1 [talazoparib]
PARP1/2
  PARP inhibitor IC50, HD cells compared to controls: reduced IC50 in HD cells
